Reference: US9510581B2, “Bed bug lures” (Rutgers, The State University of New Jersey, priority 2011, dated 2016)

Assays:
Format in all cases: in vivo, Cimex lectularius L.
bed bugs [1] = assay: Screening of chemical lures in four-choice pitfall trap bioassays; settings: for Percent catch of bed bugs in pitfall traps, Mean (%) ± SE: four-choice: three lures and an unbaited control per arena, 50 μl lure, plastic tray arena, 50 bugs, 8 hours; for Trap catch versus corresponding unbaited control: four-choice bioassays, P<0.05
Method: Bed bugs were collected from an infested house in Lakewood, N.J. They were maintained in plastic containers (4.7 cm height and 5 cm diameter) with folded paper as harborages at 26° C.±1° C., 40±10% relative humidity, a 12:12 hour (L:D) photoperiod, and were deprived of food for the entire duration of the study. All bioassays were conducted within 3 months after bed bugs were collected.
Pitfall traps were used to evaluate the attractiveness of lures. The pitfall trap was an inverted plastic dog bowl (600 ml volume, 18 cm diameter, 6.4 cm deep and 1 mm thickness) (IKEA, Baltimore, Md., USA) (FIG. 1a). The outer wall of the trap was covered with a layer of paper surgical tape (Caring International, Mundelein, Ill., USA), which was painted black with ColorPlace spray paint (WalMart Stores Inc., Bentonville, USA).
Two types of experimental arenas were used: a) wooden door arenas (200 by 76 cm by 6.4 cm) (length by width by height) with wooden floor, and b) plastic tray arenas (80 by 75 by 5 cm) (length by width by height) with bottom lined with brown paper (FIG. 1b). A layer of fluoropolymer resin (DuPont Polymers, Wilmington, Del., USA) was applied to inner walls of the experimental arenas to prevent the bugs from escaping. A layer of this resin was also applied to inner walls of the pitfall traps in a similar fashion to confine the bed bugs that fell into the traps. A filter paper (15 cm diameter) was placed on the floor in the center of each arena, and then a plastic ring (13.3 cm diameter and 6.4 cm height) was placed on the filter paper for confining the bed bugs. A piece of folded cardboard and folded fabric was placed on the filter paper to provide harborages for bed bugs. Six additional paper harborages measuring 5.1 cm long and 3.3 cm wide were placed along the edges of the floor of each wooden arena. Two wooden door arenas were located at least 6 m away from each other in a 15 m long and 9 m wide room at 23-25° C. Two additional wooden door arenas were located in two 4 m long and 2.3 m wide rooms at 24-25° C. These rooms had normal air current through vents on the ceilings or through the open door. In experiments using plastic tray arenas, four arenas were placed simultaneously in a non-ventilated, closed room measuring 4 m long and 2.3 m wide at 24-25° C. A 12:12 hour (L:D) cycle was maintained in all the rooms that were used for bioassays. […]
Twelve known or potential bed bug chemical lures (Table 1) were evaluated for their attractiveness to bed bugs in plastic tray arenas.

bed bugs [2] = assay: Relative attractiveness of four chemical lures in four-choice bioassays; settings: for Percent of bed bugs captured in baited pitfall traps: four traps per arena, each baited with one of four chemicals, four replicates
Method: Four traps in each arena were baited with one of these chemicals. Four arenas were used to obtain four replicates. Percent attraction in multiple comparison experiments involving a control was calculated as: Percent attraction=100×(T−C)/Total, where “T” is the number of bed bugs in the baited pitfall trap and “C” is the number of bed bugs in the non-baited pitfall trap. “Total” is the total number of healthy bugs in each experiment arena at time of recording the bed bug locations. The percent catch is the number of bed bugs found in a pitfall trap divided by number of healthy bed bugs in each arena at the time of recording the results. Positive values indicate attraction to the treatment and negative values indicate repellency; and the values range from −100 (complete repellency) to +100 (complete attraction). For the paired design experiments, mean percent catch were analyzed by paired t-test (P=0.05). Mean percent attractions among the treatments were compared using the non-parametric Kruskal-Wallis tests followed by Tukey's HSD test. The data for Experiment 2.10.1 and 2.10.2 were pooled for analyzing differences among treatments (treatment×day interaction was insignificant from Analysis of Variance test).

bed bugs [3] = assay: Attractiveness of chemical lures in two-choice pitfall trap bioassays; settings: baited versus unbaited trap, Kruskal-Wallis / Tukey's HSD
Method: These chemicals were further evaluated to confirm their attractiveness to bed bugs using two-choice assays. The experimental setup and testing procedure were similar to those described above however only two traps were placed at opposite corners of each arena (FIG. 1b). One trap was used as an unbaited control and the other trap received a chemical lure. Each chemical lure was evaluated 8 times over two consecutive days. The baited and non-baited trap positions in each arena were switched on the second day to eliminate any positional effect that could influence the trap catch. Percent attraction in multiple comparison experiments involving a control was calculated as: Percent attraction=100×(T−C)/Total, where “T” is the number of bed bugs in the baited pitfall trap and “C” is the number of bed bugs in the non-baited pitfall trap. “Total” is the total number of healthy bugs in each experiment arena at time of recording the bed bug locations. The percent catch is the number of bed bugs found in a pitfall trap divided by number of healthy bed bugs in each arena at the time of recording the results. Positive values indicate attraction to the treatment and negative values indicate repellency; and the values range from −100 (complete repellency) to +100 (complete attraction). For the paired design experiments, mean percent catch were analyzed by paired t-test (P=0.05). […]

bed bugs [4] = assay: Effect of CO2 release rates on bed bug trap efficacy, door arenas; settings: release rates 200, 300, 400 and 500 ml/min
Method: The two traps were placed at opposite ends equidistant (85 cm) from the center. The experiment was tested over 4 consecutive days. On each day, a different CO2 release rate was used in each arena following a Latin square design. The CO2 source was 5 lb cylinders (Airgas East Inc., Piscataway, N.J., USA). The tested release rates were: 200, 300, 400 and 500 ml/min. The rate was determined as ml of water displaced by CO2 per unit of time using a Bubble-O-Meter (Bubble-O-Meter, Dublin, Ohio, USA). The CO2 was introduced into 240 ml plastic cups that were placed on the pitfall traps (FIG. 1c). Two holes were made on the lid of each plastic cup for CO2 to escape. Fifty bed bug nymphs and adult males were released into the center of each arena and confined with a plastic ring. The bugs were acclimated for approximately 15 hours before starting the treatments. At 1 hour after dark cycle, the plastic ring confining the bugs was removed. The numbers of bed bugs trapped in the pitfall traps and those in the arenas were collected and counted after 8 hours. […] The number of dead or moribund bed bugs in each arena was very low (<5%) in all the bioassays. After counting, dead and moribund bugs were replaced with healthy bugs in each arena. All bugs were placed back to the center of the arenas and confined with plastic rings for 15 hours before starting next bioassay.

Compound	Percent catch of bed bugs in pitfall traps, Mean (%) ± SE (bed bugs [1])	Trap catch versus corresponding unbaited control (bed bugs [1])	also measured
CC(=O)CCC=C(C)C [6-Methyl-5-Hepten-2-one]	20.9 ± 2.52ab %		
CCCCCCCCC=O [Nonanal]	27.7 ± 3.2a %	significantly higher number of bugs than their corresponding controls	Percent of bed bugs captured in baited pitfall traps (bed bugs [2]): 34.0±4.6%; Attractiveness relative to spearmint oil, 1-octen-3-ol or coriander Egyptian oil (bed bugs [2]; four-choice comparison, P=0.01): approximately 2 fold; Attraction compared among lures (percent attraction) (bed bugs [3]): significantly more attractive than L-lactic acid, and L-carvone
O=C=O [CO2, carbon dioxide]			Attraction of bed bugs to traps baited with CO2 (bed bugs [4]): very attractive to bed bugs regardless of the CO2 release rates
OCc1ccccc1 [Benzyl alcohol]	25.1 ± 3.4ab %		
CC(=O)CC/C=C(/C)CCC=C(C)C [Z-Geranyl Acetone]	13.0 ± 2.4a %		
CC(O)c1ccccc1 (stereo not drawn) [Styralol]	16.4 ± 2.4bc %		
L-carvone	27.5 ± 3.5a %	significantly higher number of bugs than their corresponding controls	
C=CC(O)CCCCC (stereo not drawn) [1-octen-3-ol]	28.3 ± 2.5a^a %	significantly higher number of bugs than their corresponding controls	Percent of bed bugs captured in baited pitfall traps (bed bugs [2]): 17.0±1.8%; Attraction compared among lures (percent attraction) (bed bugs [3]): not significantly different from nonanal
C[C@H](O)C(=O)O [L-lactic acid]	25.7 ± 2.7a %	significantly higher number of bugs than their corresponding controls	
